Assay results: ChEMBL document CHEMBL4699472, “Novel potent and selective pyrazolylpyrimidine-based SYK inhibitors” (Bioorg Med Chem Lett, 2020)

What was measured:
[1] = target: Tyrosine-protein kinase SYK (Homo sapiens, UniProt P43405); test: Inhibition of SYK (unknown origin)
[2] = Intrinsic clearance in rat hepatocytes measured per million cells; assay type: ADME, cell-based, Hepatocyte; conditions: read-out: CLH
[3] = Intrinsic clearance in human liver microsomes; assay type: ADME, Microsome; conditions: read-out: CLH
[4] = Lipophilicity, logD of compound in buffer:octanol (100:1) at pH 7.4 by shake flask method; assay type: physicochemical
[5] = Volume of distribution at steady state in Han Wistar rat at 2 umol/kg, po and 1 umol/kg, iv; assay type: ADME, organism-based; conditions: in vivo, dose 1 µmol/kg, read-out: Vdss
[6] = Clearance in Han Wistar rat at 2 umol/kg, po and 1 umol/kg, iv; assay type: ADME, organism-based; conditions: in vivo, dose 1 µmol/kg
SUD4 = test: Growth inhibition of human SU-DHL-4 cells after 72 hrs; assay type: functional
[7] = Protein binding in Han Wistar rat plasma assessed as unbound fraction; assay type: ADME, cell-free
[8] = Oral bioavailability in Han Wistar rat at 2 umol/kg; assay type: ADME, organism-based; conditions: in vivo, at 2 µmol/kg
[9] = Dissociation constant, pKa of the compound; assay type: physicochemical
[10] = target: Voltage-gated inwardly rectifying potassium channel KCNH2 (Homo sapiens, UniProt Q12809); test: Inhibition of human ERG assessed as tail current by plate-based planar patch clamp assay
Sequence of Voltage-gated inwardly rectifying potassium channel KCNH2 (Q12809 whole entry): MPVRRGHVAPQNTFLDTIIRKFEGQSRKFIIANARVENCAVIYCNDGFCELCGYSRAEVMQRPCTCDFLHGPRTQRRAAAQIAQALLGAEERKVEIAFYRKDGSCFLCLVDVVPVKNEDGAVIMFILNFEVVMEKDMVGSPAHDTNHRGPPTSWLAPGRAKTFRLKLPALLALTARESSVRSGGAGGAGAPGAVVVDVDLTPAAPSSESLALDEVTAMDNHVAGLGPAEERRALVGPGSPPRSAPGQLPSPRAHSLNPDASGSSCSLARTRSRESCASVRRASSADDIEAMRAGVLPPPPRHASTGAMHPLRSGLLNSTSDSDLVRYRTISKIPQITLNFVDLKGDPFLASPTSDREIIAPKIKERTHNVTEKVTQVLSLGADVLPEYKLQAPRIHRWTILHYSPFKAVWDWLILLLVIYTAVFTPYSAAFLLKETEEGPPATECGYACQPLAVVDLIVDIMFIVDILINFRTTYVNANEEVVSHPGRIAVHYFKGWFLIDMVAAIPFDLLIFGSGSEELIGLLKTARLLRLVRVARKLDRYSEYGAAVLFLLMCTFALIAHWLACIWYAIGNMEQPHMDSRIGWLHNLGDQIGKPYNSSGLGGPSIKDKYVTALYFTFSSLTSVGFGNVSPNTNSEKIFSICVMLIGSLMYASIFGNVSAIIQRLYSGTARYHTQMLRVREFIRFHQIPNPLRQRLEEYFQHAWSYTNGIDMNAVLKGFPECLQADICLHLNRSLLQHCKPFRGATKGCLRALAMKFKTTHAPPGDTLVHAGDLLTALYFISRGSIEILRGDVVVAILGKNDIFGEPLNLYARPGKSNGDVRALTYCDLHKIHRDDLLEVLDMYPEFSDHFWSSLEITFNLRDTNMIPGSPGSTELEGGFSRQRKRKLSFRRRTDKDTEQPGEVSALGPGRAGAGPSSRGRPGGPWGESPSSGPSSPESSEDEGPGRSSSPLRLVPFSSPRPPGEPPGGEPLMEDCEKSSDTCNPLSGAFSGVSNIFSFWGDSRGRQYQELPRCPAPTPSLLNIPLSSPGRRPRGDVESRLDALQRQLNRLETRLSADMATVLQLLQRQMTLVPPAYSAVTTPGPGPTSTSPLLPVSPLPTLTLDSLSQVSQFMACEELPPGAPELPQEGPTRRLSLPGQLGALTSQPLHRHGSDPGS

[11] = Protein binding in Beagle dog plasma assessed as unbound fraction; assay type: ADME, cell-free, Canis lupus familiaris
[12] = Volume of distribution at steady state in Beagle dog at 2 umol/kg, po and 1 umol/kg, iv; assay type: ADME, organism-based, Canis lupus familiaris; conditions: in vivo, dose 2 µmol/kg, read-out: Vdss
[13] = Intrinsic clearance in dog hepatocytes measured per million cells; assay type: ADME, cell-based, Canis lupus familiaris, Hepatocyte; conditions: read-out: CLH
[14] = Clearance in Beagle dog at 2 umol/kg, po and 1 umol/kg, iv relative to hepatic blood flow; assay type: ADME, organism-based, Canis lupus familiaris; conditions: in vivo, at 2 µmol/kg
[15] = Clearance in Beagle dog at 2 umol/kg, po and 1 umol/kg, iv; assay type: ADME, organism-based, Canis lupus familiaris; conditions: in vivo, dose 2 µmol/kg
[16] = Oral bioavailability in Beagle dog at 2 umol/kg; assay type: ADME, organism-based, Canis lupus familiaris; conditions: in vivo, at 2 µmol/kg

| IC50 [1] [µM] | hepatocyte CLint [2] [µL/min/1e6 cells] | microsomal CLint [3] [µL/min/mg] | logD [4] | Compound | GI50 (SUD4) [µM] | IC50 [10] [µM] | further results |
| --- | --- | --- | --- | --- | --- | --- | --- |
| 0.00034 | 8 | 28 | 2.3 | CNC(=O)c1nn(C)c2ccc(Nc3nccc(-n4cc(NCC5(N)CC5)c(C)n4)n3)cc12 | 2.8 |  | Vd [5]: 1.3 L/kg; clearance [6]: 13 mL/min/kg; fraction unbound [7]: 0.056; bioavailability [8]: 29% |
| 0.0013 | 13 | < 3 | 1.9 | CNC(=O)c1nn(C)c2ccc(Nc3nccc(-n4cc(OC5CNC5)c(C)n4)n3)cc12 |  |  |  |
|  |  | 37 |  | Cc1nn(-c2ccnc3[nH]c(-c4cccc5c4ccn5C)nc23)cc1CN(C)C |  |  |  |
| 0.062 |  |  |  | Cc1nn(-c2ccnc(Nc3ccc4c(c3)c(Cl)nn4C)n2)cc1N[C@@H]1CCOC[C@@H]1N |  |  |  |
| 0.00024 | 13 | 20 | 1.3 | CNC(=O)c1nc(C)n2ccc(Nc3nccc(-n4cc(CN(C)C)cn4)n3)cc12 | 0.23 | 7.1 |  |
| 0.0015 | < 1 | 8 | 0.7 | CNC(=O)c1nn(C)c2ccc(Nc3nccc(-n4cc(NC5CNC5)c(C)n4)n3)cc12 |  |  |  |
| 0.00023 | 2 | < 3 |  | CNC(=O)c1nc(C)n2ccc(Nc3nccc(-n4cc(NCCN)cn4)n3)cc12 |  | > 39 |  |
| 0.011 |  |  |  | CNC(=O)c1nn(C)c2ccc(Nc3nccc(-n4cc(N[C@H]5CCNC5)c(C)n4)n3)cc12 |  |  |  |
| 0.00088 | 14 | 7 | 0.6 | CNC(=O)c1nc(C)n2ccc(Nc3nccc(-n4cc(OCCN)cn4)n3)cc12 |  | > 39 |  |
| 0.00034 | 8 | 32 | 1.6 | CNC(=O)c1nn(C)c2ccc(Nc3nccc(-n4cc(N[C@@H]5CCOC[C@@H]5N)c(C)n4)n3)cc12 | 0.56 |  | Vd [5]: 5.4 L/kg; clearance [6]: 76 mL/min/kg; fraction unbound [7]: 0.25; bioavailability [8]: 3.8% |
| 0.00022 | 8 | 71 | 2.4 | Cc1nn(-c2ccnc(Nc3ccc4c(c3)c(C(=O)C(F)(F)F)cn4C)n2)cc1N[C@@H]1CCOC[C@@H]1N |  | 4.7 |  |

Continued, compound first:

| Compound | IC50 [1] [µM] | hepatocyte CLint [2] [µL/min/1e6 cells] | microsomal CLint [3] [µL/min/mg] | logD [4] | GI50 (SUD4) [µM] | IC50 [10] [µM] | further results |
| --- | --- | --- | --- | --- | --- | --- | --- |
| CNC(=O)c1nn(C)c2ccc(Nc3nccc(-n4cc(N[C@H]5CNC[C@@H]5F)c(C)n4)n3)cc12 | 0.0003 | 8 | 28 | 1.7 | 0.97 | 19 | pKa [9]: 7.8 |
| CNC(=O)c1nn(C)c2ccc(Nc3nccc(-n4cc(N[C@@H]5CCCNC5)c(C)n4)n3)cc12 | 0.00073 | 3 | < 5 | 0.6 | 0.3 | > 39 | Vd [5]: 19 L/kg; clearance [6]: 78 mL/min/kg; fraction unbound [7]: 0.33; bioavailability [8]: 0% |
| CNC(=O)c1nc(C)n2ccc(Nc3nccc(-n4cc(N[C@@H]5CCOC[C@@H]5N)c(C)n4)n3)cc12 | 0.0032 | 6 | 32 | 1.6 | 0.81 | > 39 |  |
| CNC(=O)c1nn(C)c2ccc(Nc3nccc(-n4cc(CN(C)C)c(C)n4)n3)cc12 |  |  |  |  | 0.24 |  |  |
| CNC(=O)c1nn(C)c2ccc(Nc3nccc(-n4cc(O[C@@H]5CCNC5)c(C)n4)n3)cc12 | 0.00051 | 13 | < 5 | 1.4 | 0.51 | 5.2 |  |
| CNC(=O)c1nn(C)c2ccc(Nc3nccc(-n4cc(O[C@@H]5CCCNC5)c(C)n4)n3)cc12 | 0.00019 | 9 | 8 | 1.7 | 0.35 | 2.5 |  |
| CNC(=O)c1nn(C)c2ccc(Nc3nccc(-n4cc(N[C@@H]5CCN(C)C5)c(C)n4)n3)cc12 | 0.0079 |  |  | 2 |  |  |  |
| CNC(=O)c1nn(C)c2ccc(Nc3nccc(-n4cc(O[C@H]5CNC[C@H]5F)c(C)n4)n3)cc12 | 0.0004 | 25 | 44 | 2.9 | 1.4 |  |  |
| CNC(=O)c1nn(C)c2ccc(Nc3nccc(-n4cc(N[C@@H]5CCNC5)c(C)n4)n3)cc12 | 0.0006 | 3 | < 10 | 0.3 | 0.17 | > 39 | pKa [9]: 9.5; Vd [5]: 13 L/kg; clearance [6]: 60 mL/min/kg; fraction unbound [7]: 0.24; bioavailability [8]: 0% |
| Cc1nnc(-c2nn(C)c3ccc(Nc4nccc(-n5cc(N[C@@H]6CCOC[C@@H]6N)c(C)n5)n4)cc23)o1 | 0.0002 | 17 | 129 | 3.1 | 1.3 | 11 |  |
| CNC(=O)c1nn(C)c2ccc(Nc3nccc(-n4cc(N[C@@H]5CCOC[C@@H]5N)cn4)n3)cc12 | 0.00033 | 4 | 17 | 2.2 | 0.22 | 15 | fraction unbound [11]: 0.27; Vd [12]: 5.7 L/kg; Vd [5]: 9.8 L/kg; hepatocyte CLint [13]: < 1 µL/min/1e6 cells; CL [14]: 40%; clearance [15]: 16 mL/min/kg; clearance [6]: 82 mL/min/kg; fraction unbound [7]: 0.28; bioavailability [8]: 1.8%; bioavailability [16]: 2% |
| CNC(=O)c1nn(C)c2ccc(Nc3nccc(-n4cc(O[C@H]5CCNC5)c(C)n4)n3)cc12 | 0.0029 |  |  |  |  |  |  |
| CNC(=O)c1nc(C)n2ccc(Nc3nccc(-n4cc(N[C@@H]5CCOC[C@@H]5N)cn4)n3)cc12 |  | 14 | 20 | 1.7 | 0.26 | > 39 |  |
